According to paper PMC10518340, “Secreted LRPAP1 binds and triggers IFNAR1 degradation to facilitate virus evasion from cellular innate immunity” (Signal Transduction and Targeted Therapy, 2023):
Entries after “also recorded” stand apart in the source; their conditions may differ.

How the values were obtained:
[1] = system: IFNAR1; test: Effect of lysosome / proteasome inhibitors on LRPAP1-induced IFNAR1 reduction, HEK-293T cells; settings: 4 h, MA 20 mM; for effect on LRPAP1-induced IFNAR1 reduction: bafilomycin 1 μM, MG132 40 μM, leupeptin 50 μM
[2] = system: IFNAR1; test: IFNAR1 phosphorylation immunoblot, HEK-293T cells; assay type: cell-based, human; settings: extracellular rLRPAP1, 1 h
[3] = system: IFNAR1; test: IFNAR1 protein level, immunoblot / immunofluorescence, RD cells; assay type: cell-based; settings: RD cells, 200 nM, 1 h
[4] = system: EV71; test: EV71 infection of RD cells (viral RNA, titer, viral protein, CPE)
[5] = system: IFNAR1; test: IFNAR1 endocytosis, EEA1 immunofluorescence, HEK-293T cells; assay type: cell-based, human; settings: 200 nM, 1 h
Protocol: Cellular expression of IFNAR1, viral protein VP1 and LRPAP1 at HEK-293T cells with and without the stimulation of EV71, the recombinant LRPAP1, and overexpression of LRPAP1 or 2A, were examined by the following protocol. Briefly, HEK-293T cells were washed twice with PBS and fixed with 4% paraformaldehyde for 20 min. Afterwards, cells were incubated with blocking buffer (10% (v/v) FBS, 1% (v/v) BSA, and 0.1% (v/v) Triton in PBS) for 2 h. Cells were then incubated with specific antibodies. […] After washing with PBST (PBS + 0.1% Tween-20) for 3 times, cells were labeled with Alexa Fluor 488 (green), or Alexa Fluor 594 (red) conjugated secondary antibody (dilution of 1:1000) (Life Technologies) for 1 h at 4 °C with shaking. After three times washing with PBST (PBS + 0.1% Tween-20), cells were followed by nuclei staining with DAPI (0.5 μg/ml) for 5 min at room temperature. Finally, cells were mounted with Prolong Gold Antifade Reagent on slides. Images were taken by Carl Zeiss LSM 880 confocal microscope using 63× oil objective and analyzed by ZEN software.

[6] = system: EV71; test: EV71 infection of newborn C57BL/6 mice; assay type: in vivo
Protocol: The C57BL/6 mice were purchased and were bred in the City University of Hong Kong. All animal experiment protocols were approved by the Ethics Committee of City University of Hong Kong with the license from Department of Health, Hong Kong (18-69 in DH/SHS/8/2/5 Pt.3). The studies were performed in accordance with the approved protocol. […] The neurological status and behavior of each mouse was measured every day. On day 7, mice were sacrificed, and the intestine and blood were collected for viral testing.

[7] = system: extracellular domain of IFNAR1; test: Pull-down / co-immunoprecipitation of LRPAP1 with IFNAR1; assay type: binding; settings: Residues 1–436
Protocol: The interaction of LRPAP1, LRP1 and IFNAR1 was examined by immunoprecipitation using a protocol described as followed. HEK293T cells were cultured at around 90% confluence in a 100 mm tissue culture dish. Cells were washed with 10 ml of PBS and harvested in 0.5 ml of ice-cold lysis buffer ([…], pH 7.4, 1% SDS, 1% NP-40) and Protease Cocktail (Roche) and PhoSTOP (Roche). The total extract was pre-cleared with 10 μg normal rabbit IgG (Cell signaling, 2729 S) and 20 μl of protein A/G plus-agarose (Santa Cruz Biotechnology) at 4 °C on a rotor for 1 h. After gently removed protein A/G agarose beads by centrifugation at 500 rcf for 2 min, 0.2 mg of total extract was immunoprecipitated with the indicated antibodies overnight at 4 °C on a rotor. Approximately 20 μl of protein A/G plus-agarose (Santa Cruz Biotechnology) was added at 4 °C for one hour. Then, the beads were washed three times with washing buffer (lysis buffer contained 0.1% NP-40). The pellet was suspended with 40 μl PBS and 10 μl of 5× SDS-PAGE loading buffer and the samples were boiled for 10 min.
The interaction of LRPAP1, LRP1 and IFNAR1 was examined by immunoprecipitation using a protocol described as followed. HEK293T cells were cultured at around 90% confluence in a 100 mm tissue culture dish. […]

[8] = system: IFNAR1; test: IFNAR1 and LRPAP1 in membrane and cytosol fractions, HEK-293T cells; assay type: cell-based, human; settings: 200 nM, 1 min to 10 min
Protocol: Then proteins were subjected to Western blotting. […] Hes1 (Abcam, ab71559).
(§1) Tissues were washed twice with PBS and made into homogenate by 2 ml grinder. Membrane proteins were separated from cytosol protein extraction by using the protocol of membrane protein extraction kit (89842, Thermo).

[9] = system: IFNAR1; test: LRPAP1 stimulated mouse brain ex vivo, membrane IFNAR1 immunoblot; set-up: species or system C57BL/6 mouse; settings: 200 nM, ACSF, 1 h
Protocol: as §1

[10] = system: IFNAR1; test: IFNAR1 protein level, immunoblot, HEK-293T cells; assay type: cell-based, human
[11] = system: EV71; test: EV71 entry and uncoating, HEK-293T cells; assay type: cell-based; settings: pre-treated on ice 1 h, EV71 MOI 50, within 1 h
[12] = system: HCoV-OC43; test: HCoV-OC43 infection of RD cells (viral RNA, TCID50, CPE); settings: pre-treated 1 h (or siRNA 24 h), MOI 1, 72 h
[13] = system: IFNAR1; test: Flow cytometry, cell surface IFNAR1 on 4T1 cells; assay type: cell-based, murine; settings: live 4T1 cells, 200 nM
Protocol: (§2) The surface IFNAR1 was monitored by flow cytometry as previous described.[60] Briefly, murine breast cancer cells (4T1) were stained with APC-conjugated IFNAR1 (Biolegend #127314, 1:100) on ice for 30 min. […] Fluorescence-activated cells were then sorted and analyzed by Beckman Coulter CytoFLEX S Flow cytometer ([…]). The result was analyzed by FlowJo (version 10.5.3).
as §2, with “described^63.” for “described.[60]”

[14] = system: LRPAP1; assay type: cell-based, human
[15] = system: LRP1; assay type: cell-based, human
[16] = system: LRPAP1; assay type: cell-based, human; remark: listed apart in the source

Compound: CN [methylamine]
- effect on LRPAP1-induced IFNAR1 reduction [1]: prohibited by lysosome inhibitors
- protection of IFNAR1 from degradation ([1]; ubiquitin, LRPAP1, IFNAR1 expressed): IFNAR1 was protected from degradation

Compound: CO/C1=C\C(C)=C\[C@@H](C)[C@@H](O)[C@@H](C)C/C(C)=C/C=C/[C@H](OC)[C@@H]([C@@H](C)[C@@H](O)[C@H](C)[C@@]2(O)C[C@@H](O)[C@H](C)[C@@H](C(C)C)O2)OC1=O [bafilomycin]
- effect on LRPAP1-induced IFNAR1 reduction [1]: prohibited by lysosome inhibitors

Compound: rLRPAP1: recombinant LRPAP1 from pQTEV-LRPAP1 expressed in E. coli
- phosphorylated IFNAR1 [2]: promoted in an extracellular rLRPAP1 dose-dependent manner
- IFNAR1 in the cell membrane (immunofluorescence) [3]: sharply decreased in the cell membrane
- EV71 infection ([4]; RD cells, 9 h, plasmid, recombinant protein or peptide pre-treatment, viral RNA / titer): significantly promoted EV71 infection
- EV71 induced CPE ([4]; antibody added 3 h post infection (MOI 10, 6 h), rLRPAP1 200 nM pre-treatment 1 h): significantly promoted EV71 infection and EV71-induced CPE
- IFNAR1 endocytosis (EEA1 level) [5]: increased level of early endosome marker (EEA1)
- survival rate ([6]; co-injected EV71 and rLRPAP1, 7 days): 75%
- mice with severe neurological deficits ([6]; co-injected EV71 and rLRPAP1, after two injections (Day 3)): 50%
- physical condition of mice ([6]; co-injected EV71 and rLRPAP1, i.p. twice per week): severe physical disharmony
- EV71 infection and disease in mice ([6]; i.p. EV71 (2*10^8 PFU) + rLRPAP1 (200 nM) twice per week): potently enhanced EV71 infection and exacerbated the disease in newborn C57BL/6 mice
- direct binding to IFNAR1 extracellular domain (pull-down) [7]: directly bound with the extracellular domain of IFNAR1
- IFNAR1 level in membrane / cytosol fractions [8]: IFNAR1 consistently decreased with time
- rLRPAP1 enrichment in membrane fractions [8]: gradually enriched in the membrane fractions
- membrane IFNAR1 in mouse brain [9]: significantly lower
- IFNAR1 level on rLRPAP1 treatment ([10]; 50 nM, 1 h): marginal detectable level
- IFNAR1 level on rLRPAP1 treatment ([10]; 200 nM, 1 h): undetectable level
- IFNAR1 level on rLRPAP1 treatment ([10]; within 15 min, dose-dependent): rapidly decreased within 15 min in a rLRPAP1 dose-dependent manner
- EV71 entry and uncoating rate [11]: promoted EV71 entry and uncoating rate within 1 h
- HCoV-OC43 intracellular RNA level [12]: increased significantly
- HCoV-OC43 viral titer (TCID50) [12]: increased significantly
- cell surface IFNAR1 [13]: significantly reduced cell surface IFNAR1

Compound: SARS-CoV-2 3CL^pro: SARS-CoV-2 main protease, transfected pCMV-SARS-CoV-2-3CL
- LRPAP1 expression [14]: increased LRPAP1 expression
- IFNAR1 level [10]: decreased IFNAR1 level; also recorded: expression of IFNAR1 decreased
- LRP1 protein level [15]: decreased protein level
- extracellular LRPAP1 level [16]: extracellular LRPAP1 increase
